A word on the ED50: it is the midpoint of the dose-response relation. What is called half-life is the time in which the quantity being followed falls by half. By bioavailability is commonly meant dose-corrected exposure relative to a reference, in per cent. As a reminder, the Ki is a dissociation constant, usually derived from enzyme kinetics or from competition with a known ligand. Broadly, the IC50 is the concentration at which inhibition is half-maximal.

Series [1] has as its system Cavia porcellus. Kind of series: Compound was evaluated in vivo for antigen induced airway obstruction in guinea pig (OA) at 1.0 hour after oral administration. It is filed as functional.
Series [2] is described as follows: Compound was evaluated for terminal half life in monkey. It is filed as ADME. The note with it: cercopithecidae, in vivo.
The species named for series [3] is Rattus norvegicus. As to the kind of experiment: Compound was evaluated for Hepatic clearance in rat. The following applies: in vivo. The series is classed as ADME, organism-based, Liver.
The nature of series [4]: Compound was evaluated for Hepatic clearance in monkey. It is filed as ADME, organism-based, Liver. The note with it: cercopithecidae, in vivo.
A short description of series [5]: Oral bioavailability in monkey. The series is classed as ADME, organism-based. The note with it: cercopithecidae, in vivo.
The nature of series [6]: Oral bioavailability in rat. It is filed as ADME, organism-based. The note with it: in vivo.
The nature of series [7]: Compound was evaluated for terminal half life in rat. The series is classed as ADME, organism-based. The following applies: in vivo.
In series [8] the target is T1, Cysteinyl leukotriene receptor 1 (Cavia porcellus, UniProt Q2NNR5).
T1 sequence (Q2NNR5 whole entry): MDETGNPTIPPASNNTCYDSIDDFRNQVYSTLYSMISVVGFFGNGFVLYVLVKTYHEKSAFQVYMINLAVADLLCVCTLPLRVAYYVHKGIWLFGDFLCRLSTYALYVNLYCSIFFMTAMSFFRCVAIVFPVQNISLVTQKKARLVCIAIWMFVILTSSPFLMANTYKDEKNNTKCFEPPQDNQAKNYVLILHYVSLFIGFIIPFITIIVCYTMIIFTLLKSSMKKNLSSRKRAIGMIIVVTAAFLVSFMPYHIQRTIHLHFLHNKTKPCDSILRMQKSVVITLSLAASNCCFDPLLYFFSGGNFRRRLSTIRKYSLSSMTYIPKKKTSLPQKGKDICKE
Kind of series: In vitro binding of Cysteinyl leukotriene receptor 1 to guinea pig lung membranes. The series is classed as tissue-based, Membrane.

Series [9] relates to Cavia porcellus. As to the kind of experiment: Compound was evaluated in vivo for cysLT1 receptor induced airway obstruction in guinea pig (OA) at 1.0 hour after oral administration. The series is classed as functional.
Series [10] concerns U-937. Kind of series: In vitro blocking of extracellular calcium mobilization in human U937 cells. The series is classed as functional, cell-based. In general terms: A change in cytosolic calcium serves as a functional read-out for many receptors and channels.
The subject of series [11] is Cavia porcellus. As to the kind of experiment: Compound was evaluated in vivo for cysLT1 receptor induced airway obstruction in guinea pig (OA) at 1.0 hour after oral administration. It is filed as functional.
The test system of series [12] is Cavia porcellus. As to the kind of experiment: Compound was evaluated in vivo for antigen induced airway obstruction in guinea pig (OA) at 2.0 hour after oral administration. The series is classed as functional.
The subject of series [13] is Cavia porcellus. Kind of series: Compound was evaluated in vivo for cysLT1 receptor induced airway obstruction in guinea pig (OA) at 2.0 hour after oral administration. It is filed as functional.

`O=C(Nc1cccc2c(=O)cc(-c3nnn[nH]3)oc12)c1ccc(OCCCCc2ccccc2)cc1` showed an ED50 in series [1] of 1.5 mg/kg.

As for `COc1ccc(NS(=O)(=O)C(F)(F)F)cc1C[C@@H]1COc2ccc(OCc3ccc4ccc(Cl)cc4n3)cc2[C@@H]1O`, the half-life in series [2] was 2.1 h; in series [7], 0.8 h. Moreover, the Clp came to 8.9 mL/min/kg in [3] and 6.5 mL/min/kg in series [4]. The bioavailability was 100% in series [5] and 53% in [6]. The Ki in [8] is 0.6 nM. Besides, the ED50 in series [1] stood at 0.46 mg/kg; in series [9], 0.12 mg/kg. Also, in series [10], the IC50 worked out at 0.7 nM.

In the case of `COc1ccc(NS(=O)(=O)C(F)(F)F)cc1C[C@@H]1COc2ccc(OCc3nc4cc(F)c(F)cc4s3)cc2[C@@H]1O`, the half-life is 9.4 h in series [2] and 8.8 h in series [7]. The Clp in series [3] amounted to 8.3 mL/min/kg; in series [4] it was 4.2 mL/min/kg. Further, the bioavailability in series [5] amounted to 72%; in series [6], 46%. The affinity in series [8], expressed as Ki, was 0.4 nM. Further, the figures for the ED50 in series [1] and in [11] were 0.52 mg/kg and 0.08 mg/kg, respectively. The half-inhibitory concentration (IC50) in [10] is 0.3 nM.

Consider `COc1cc(C(=O)NS(=O)(=O)c2ccccc2C)ccc1Cc1cn(C)c2ccc(NC(=O)OC3CCCC3)cc12` [ZAFIRLUKAST], for which the median effective dose (ED50) in [12] was 0.9 mg/kg; in [13], 0.52 mg/kg.

The values are drawn from ChEMBL document CHEMBL1131991, “Discovery of CP-199,330 and CP-199,331: two potent and orally efficacious cysteinyl LT1 receptor antagonists devoid of liver toxicity” (Bioorg Med Chem Lett, 1999).
